Reference: article PMC9977294, “A parasitic fungus employs mutated eIF4A to survive on rocaglate-synthesizing Aglaia plants” (eLife, 2023)
Several values for one entry are separate records, joined by “and”; a condition that tells them apart may be missing. Equal entries are not always repeated. Where two headings read alike, the source gives them in different places.

What was measured:
Assay in all cases: Fluorescence polarization assay, FAM-labeled [AG]10 RNA and recombinant eIF4A
Type in all cases: binding
Details in all cases: for Kd: [AG]10 10 nM, compound 50 µM, read-out: Kd between eIF4A protein and RNA
[1] = molecular target: Ophiocordyceps sp. BRM1 eIF4A iso4 Gly172His
Description: (§1) The fluorescence polarization assay was performed as previously described ([Chen et al., 2021]). […] After incubation at room temperature for 30 min, the mixture was transferred to a black 384-well microplate (Corning), and the fluorescence polarization was measured by an Infinite F-200 PRO (Tecan). Under ADP + Pi conditions, 1 mM ADP (Fujifilm Wako Chemicals) and 1 mM Na2HPO4 were used as substitutes for AMP-PNP. The data were fitted to the Hill equation to calculate Kd values and visualized by Igor Pro v8.01 (WaveMetrics).

[2] = molecular target: Ophiocordyceps sp. BRM1 eIF4A iso4 Gly172Phe
Description: as §1

[3] = molecular target: Ophiocordyceps sp. BRM1 eIF4A iso4 WT Gly172
Description: as §1

[4] = [AG]10, ADP + Pi, RocA 50 µM, protein 0.01 μM
[5] = [AG]10, ADP + Pi, RocA 50 µM, protein 0.05 μM
[6] = [AG]10, ADP + Pi, RocA 50 µM, protein 0.075 μM
[7] = [AG]10, ADP + Pi, RocA 50 µM, protein 0.1 μM
[8] = [AG]10, ADP + Pi, RocA 50 µM, protein 0.5 μM
[9] = [AG]10, ADP + Pi, RocA 50 µM, protein 0.75 μM
[10] = [AG]10, ADP + Pi, RocA 50 µM, protein 1 μM
[11] = [AG]10, ADP + Pi, RocA 50 µM, protein 5 μM
[12] = [AG]10, ADP + Pi, RocA 50 µM, protein 7.5 μM
[13] = [AG]10, ADP + Pi, RocA 50 µM, protein 10 μM
[14] = [AG]10, ADP + Pi, RocA 50 µM, protein 25 μM
[15] = [AG]10, ADP + Pi, RocA 50 µM, protein 50 μM
[16] = [AG]10 RNA, AMP-PNP, RocA, protein concentration 0.01 μM
[17] = [AG]10 RNA, AMP-PNP, RocA, protein concentration 0.05 μM
[18] = [AG]10 RNA, AMP-PNP, RocA, protein concentration 0.075 μM
[19] = [AG]10 RNA, AMP-PNP, RocA, protein concentration 0.1 μM
[20] = [AG]10 RNA, AMP-PNP, RocA, protein concentration 0.5 μM
[21] = [AG]10 RNA, AMP-PNP, RocA, protein concentration 0.75 μM
[22] = [AG]10 RNA, AMP-PNP, RocA, protein concentration 1 μM
[23] = [AG]10 RNA, AMP-PNP, RocA, protein concentration 5 μM
[24] = [AG]10 RNA, AMP-PNP, RocA, protein concentration 7.5 μM
[25] = [AG]10 RNA, AMP-PNP, RocA, protein concentration 10 μM
[26] = [AG]10 RNA, AMP-PNP, RocA, protein concentration 25 μM
[27] = [AG]10 RNA, AMP-PNP, RocA, protein concentration 50 μM

COc1ccc([C@@]23Oc4cc(OC)cc(OC)c4[C@]2(O)[C@H](O)[C@H](C(=O)N(C)C)[C@H]3c2ccccc2)cc1 [RocA, rocaglamide A]
Kd ([1]; ADP + Pi (1 mM each)): 3900 ± 980 nM
Kd ([1]; AMP-PNP 1 mM): 51 ± 9.1 nM
fluorescence polarization, Mean [1, 4]: -0.1448
fluorescence polarization, replicates [1, 4]: -0.04098 and -0.2377
fluorescence polarization, Mean [1, 5]: -0.08743
fluorescence polarization, replicates [1, 5]: -0.08197 and -0.02459
fluorescence polarization, Mean [1, 6]: -0.06284
fluorescence polarization, replicates [1, 6]: -0.05738 and -0.123 and -0.008197
fluorescence polarization, Mean [1, 7]: -0.07923
fluorescence polarization, replicates [1, 7]: -0.05738 and -0.08197 and -0.09836
fluorescence polarization, Mean [1, 8]: 0.265
fluorescence polarization, replicates [1, 8]: 0.2459 and 0.2541 and 0.2951
fluorescence polarization, Mean [1, 9]: 0.2814
fluorescence polarization, replicates [1, 9]: 0.3197 and 0.3443 and 0.1803
fluorescence polarization, Mean [1, 10]: 0.4809
fluorescence polarization, replicates [1, 10]: 0.4754 and 0.5 and 0.4672
fluorescence polarization, replicates [1, 11]: 0.459 and 0.6639
fluorescence polarization, Mean [1, 12]: 0.7978
fluorescence polarization, replicates [1, 13]: 0.5246 and 0.5902 and 0.582
fluorescence polarization, Mean [1, 14]: 0.8743
fluorescence polarization, replicates [1, 14]: 0.8197 and 0.877 and 0.9262
fluorescence polarization, Mean [1, 15]: 1.003
fluorescence polarization, replicates [1, 15]: 1.033 and 1.0082
Fluorescence polarization, Replicate 1-3 [1, 16]: 0.06831 and 0.1421 and 0.06011
fluorescence polarization, Mean [1, 16]: 0.09016
Fluorescence polarization, Replicate 1-3 [1, 17]: 0.5929 and 0.5109 and 0.4781
fluorescence polarization, Mean [1, 17]: 0.5273
Fluorescence polarization, Replicate 1-3 [1, 18]: 0.5519 and 0.5601 (2×)
fluorescence polarization, Mean [1, 18]: 0.5574
Fluorescence polarization, Replicate 1-3 [1, 19]: 0.6093 and 0.6749 and 0.5519
fluorescence polarization, Mean [1, 19]: 0.612
Fluorescence polarization, Replicate 1-3 [1, 20]: 0.8716 (2×) and 0.806
fluorescence polarization, Mean [1, 20]: 0.8497
Fluorescence polarization, Replicate 1-3 [1, 21]: 0.8798 and 0.8634 and 0.9126
fluorescence polarization, Mean [1, 21]: 0.8852
Fluorescence polarization, Replicate 1-3 [1, 22]: 0.9536 and 0.9372 and 0.8716
fluorescence polarization, Mean [1, 22]: 0.9208
Fluorescence polarization, Replicate 1-3 [1, 23]: 0.9372 (2×) and 0.9044
fluorescence polarization, Mean [1, 23]: 0.9262
Fluorescence polarization, Replicate 1-3 [1, 24]: 0.8716 and 0.9126 and 0.9044
fluorescence polarization, Mean [1, 24]: 0.8962
Fluorescence polarization, Replicate 1-3 [1, 25]: 0.9536 and 0.929 and 0.8552
fluorescence polarization, Mean [1, 25]: 0.9126
Fluorescence polarization, Replicate 1-3 [1, 26]: 0.9372 and 1.027 and 0.9536
fluorescence polarization, Mean [1, 26]: 0.9727
Fluorescence polarization, Replicate 1-3 [1, 27]: 1.044 (2×) and 1.027
fluorescence polarization, Mean [1, 27]: 1.038
Kd ([2]; ADP + Pi (1 mM each)): 270 ± 50 nM
Kd ([2]; AMP-PNP 1 mM): 53 ± 23 nM
fluorescence polarization, Mean [2, 4]: -0.0929
fluorescence polarization, replicates [2, 4]: -0.1366
fluorescence polarization, Mean [2, 5]: -0.112
fluorescence polarization, replicates [2, 5]: -0.1366
fluorescence polarization, Mean [2, 6]: -0.05465
fluorescence polarization, replicates [2, 6]: -0.005465
fluorescence polarization, Mean [2, 7]: 0.05191
fluorescence polarization, replicates [2, 7]: 0.0929 and 0.002732
fluorescence polarization, Mean [2, 8]: 0.3142
fluorescence polarization, replicates [2, 8]: 0.3142 and 0.2486
fluorescence polarization, Mean [2, 9]: 0.3661
fluorescence polarization, replicates [2, 9]: 0.429 and 0.306
fluorescence polarization, Mean [2, 10]: 0.4044
fluorescence polarization, replicates [2, 10]: 0.3552 and 0.429 (2×)
fluorescence polarization, Mean [2, 11]: 0.4399
fluorescence polarization, replicates [2, 11]: 0.4781 and 0.4208 (2×)
fluorescence polarization, Mean [2, 12]: 0.5328
fluorescence polarization, replicates [2, 12]: 0.5519 and 0.5027
fluorescence polarization, Mean [2, 13]: 0.5055
fluorescence polarization, replicates [2, 13]: 0.4372 and 0.5109 and 0.5683
fluorescence polarization, Mean [2, 14]: 0.5301
fluorescence polarization, replicates [2, 14]: 0.4863
fluorescence polarization, Mean [2, 15]: 0.5273
fluorescence polarization, replicates [2, 15]: 0.5765 and 0.5519 and 0.4536
Fluorescence polarization, Replicate 1-3 [2, 16]: 0.3525 and 0.2213 and 0.04098
fluorescence polarization, Mean [2, 16]: 0.2049
Fluorescence polarization, Replicate 1-3 [2, 17]: 0.3852 and 0.2951 and 0.2787
fluorescence polarization, Mean [2, 17]: 0.3197
Fluorescence polarization, Replicate 1-3 [2, 18]: 0.3197 and 0.3607 and 0.3361
fluorescence polarization, Mean [2, 18]: 0.3388
Fluorescence polarization, Replicate 1-3 [2, 20]: 0.8689 and 0.8197
Fluorescence polarization, Replicate 1-3 [2, 21]: 0.8115 and 0.7295
fluorescence polarization, Mean [2, 21]: 0.7514
Fluorescence polarization, Replicate 1-3 [2, 22]: 0.8279 and 0.8934
Fluorescence polarization, Replicate 1-3 [2, 23]: 0.8197 and 0.877
fluorescence polarization, Mean [2, 23]: 0.8661
Fluorescence polarization, Replicate 1-3 [2, 24]: 0.9262 and 0.8361 and 0.8525
fluorescence polarization, Mean [2, 24]: 0.8716
Fluorescence polarization, Replicate 1-3 [2, 25]: 0.8689 and 0.8525 and 0.8033
fluorescence polarization, Mean [2, 25]: 0.8415
Fluorescence polarization, Replicate 1-3 [2, 26]: 0.8607 and 0.9262 and 0.877
fluorescence polarization, Mean [2, 26]: 0.888
Fluorescence polarization, Replicate 1-3 [2, 27]: 0.9344 and 0.9672 and 0.9098
fluorescence polarization, Mean [2, 27]: 0.9372
Kd ([3]; ADP + Pi (1 mM each)): ~17000 nM and 17000 nM
Kd ([3]; AMP-PNP 1 mM): 230 ± 50 nM
fluorescence polarization, Mean [3, 4]: -0.01093
fluorescence polarization, replicates [3, 4]: 0.0929
fluorescence polarization, Mean [3, 5]: -0.1393
fluorescence polarization, replicates [3, 5]: -0.2186
fluorescence polarization, Mean [3, 6]: -0.09563
fluorescence polarization, replicates [3, 6]: -0.03825 and -0.2268
fluorescence polarization, Mean [3, 7]: -0.08743
fluorescence polarization, replicates [3, 7]: -0.09563
fluorescence polarization, Mean [3, 8]: -0.2951
fluorescence polarization, replicates [3, 8]: -0.2432 and -0.2923 and -0.3497
fluorescence polarization, Mean [3, 9]: -0.347
fluorescence polarization, replicates [3, 9]: -0.3169 and -0.3661 and -0.3579
fluorescence polarization, Mean [3, 10]: -0.2568
fluorescence polarization, replicates [3, 10]: -0.1858 and -0.2104 and -0.3743
fluorescence polarization, Mean [3, 11]: -0.112
fluorescence polarization, replicates [3, 11]: -0.1448 and -0.1612
fluorescence polarization, Mean [3, 12]: -0.1202
fluorescence polarization, replicates [3, 12]: -0.08743
fluorescence polarization, Mean [3, 13]: 0.002732
fluorescence polarization, replicates [3, 13]: -0.005465
fluorescence polarization, Mean [3, 14]: 0.2951
fluorescence polarization, replicates [3, 14]: 0.265
fluorescence polarization, Mean [3, 15]: 0.4044
fluorescence polarization, replicates [3, 15]: 0.4208 and 0.429
Fluorescence polarization, Replicate 1-3 [3, 16]: -0.2186 and -0.2022 and -0.2268
fluorescence polarization, Mean [3, 16]: -0.2158
Fluorescence polarization, Replicate 1-3 [3, 17]: 0.2732 and -0.005465 and -0.2268
fluorescence polarization, Mean [3, 17]: 0.01366
Fluorescence polarization, Replicate 1-3 [3, 18]: -0.112 and -0.04645 and -0.2104
fluorescence polarization, Mean [3, 18]: -0.123
Fluorescence polarization, Replicate 1-3 [3, 19]: 0.3224 and -0.194 and -0.1612
fluorescence polarization, Mean [3, 19]: -0.01093
Fluorescence polarization, Replicate 1-3 [3, 20]: 0.2896
fluorescence polarization, Mean [3, 20]: 0.2896
Fluorescence polarization, Replicate 1-3 [3, 21]: 0.4699 and 0.2732 and 0.1585
fluorescence polarization, Mean [3, 21]: 0.3005
Fluorescence polarization, Replicate 1-3 [3, 22]: 0.4617 and 0.347 and 0.3306
fluorescence polarization, Mean [3, 22]: 0.3798
Fluorescence polarization, Replicate 1-3 [3, 23]: 0.5683 and 0.3962 and 0.429
fluorescence polarization, Mean [3, 23]: 0.4645
Fluorescence polarization, Replicate 1-3 [3, 24]: 0.5765 and 0.4372 and 0.4044
fluorescence polarization, Mean [3, 24]: 0.4727
Fluorescence polarization, Replicate 1-3 [3, 25]: 0.4372 and 0.3962 and 0.3224
fluorescence polarization, Mean [3, 25]: 0.3852
Fluorescence polarization, Replicate 1-3 [3, 26]: 0.6585 and 0.4372 and 0.4617
fluorescence polarization, Mean [3, 26]: 0.5191
Fluorescence polarization, Replicate 1-3 [3, 27]: 0.5929 and 0.4863 and 0.4699
fluorescence polarization, Mean [3, 27]: 0.5164
